According to patent US9169252B2 (BRISTOL-MYERS SQUIBB COMPANY, priority 2014, dated 2015):
Counter-ions that a name gives are not always drawn. Like-named read-outs stand apart in the source and are kept apart here.

Experiments:
IRAK4 = IRAK4 (Homo sapiens (Human), UniProt Q9NWZ3); experiment: IRAK4 Inhibition Assay; format: biochemical; conditions: ATP 500 μM, read-out: IRAK4 IC50
Experimental: The assays were performed in U-bottom 384-well plates. […] The reaction was initiated by the combination of IRAK4 with substrates and test compounds. The reaction mixture was incubated at room temperature for 60 min. and terminated by adding 45 μL of 35 mM EDTA to each sample. The reaction mixture was analyzed on the Caliper LABCHIP® 3000 (Caliper, Hopkinton, Mass.) by electrophoretic separation of the fluorescent substrate and phosphorylated product.

[1] = test system: TLR2 induced IL-6 in peripheral blood mononuclear cells (PBMCs); experiment: PBMC TLR2 Induced IL-6 Assay; format: cell-based, human; conditions: IL-6 by ELISA; for EC50: read-out: Cell EC50; for IC50: read-out: Cell IC50
Experimental: PBMC TLR2 Induced IL-6 Assay
Peripheral blood mononuclear cells (PBMCs) were isolated from human blood containing the anti-coagulant EDTA (2.5 mM) by centrifugation over a FICOLL® gradient. PBMCs (250000 cells/well) were cultured in assay media (RPMI with 10% heat inactivated FCS) with compounds for 30 minutes at 37° C. in a 5% CO2 incubator. Following pretreatment with compounds, cells were stimulated for 5 hours with 10 µg/ml lipoteichoic acid (Invivogen, San Diego, Calif.), a TLR2 agonist. At the end of the culture, plates were centrifuged at 1800 rpm for 10 minutes to pellet the cells.

[2] = Homo sapiens, PBMC, PBMC TLR2 Induced IL-6 Assay, lipoteichoic acid stimulation
[3] = Homo sapiens, PBMC, human PBMCs, lipoteichoic acid stimulated
[4] = human PBMCs, lipoteichoic acid stimulated

Chain of IRAK4 (Q9NWZ3 whole entry, species assumed): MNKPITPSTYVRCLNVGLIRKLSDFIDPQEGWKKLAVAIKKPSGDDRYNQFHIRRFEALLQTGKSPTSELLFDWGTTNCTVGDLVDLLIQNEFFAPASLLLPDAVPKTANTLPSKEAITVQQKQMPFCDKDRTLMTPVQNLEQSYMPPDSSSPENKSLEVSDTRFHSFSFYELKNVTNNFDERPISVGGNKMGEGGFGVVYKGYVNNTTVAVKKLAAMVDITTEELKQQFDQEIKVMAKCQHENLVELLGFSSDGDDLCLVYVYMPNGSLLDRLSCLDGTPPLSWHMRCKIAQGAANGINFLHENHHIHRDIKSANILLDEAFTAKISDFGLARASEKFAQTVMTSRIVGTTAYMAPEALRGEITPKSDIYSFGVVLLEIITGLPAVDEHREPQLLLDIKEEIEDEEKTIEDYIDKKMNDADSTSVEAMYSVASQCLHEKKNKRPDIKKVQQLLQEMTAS

“6-(5-cyano-1H-pyrrolo[2,3-b]pyridin-1-yl)-N—((S)-2-fluoro-3-hydroxy-3-methylbutyl)-4-((3-fluorotetrahydro-2H-pyran-4-yl)amino) nicotinamide [Example 108]” was tested. Which IC50 (IRAK4; IRAK4 Inhibition Assay) did it give?
The IC50 was 3.5 nM.

And the EC50 ([1]; PBMC TLR2 Induced IL-6 Assay, lipoteichoic acid stimulation)?
The EC50 was 172 nM.

How did the IC50 (IRAK4; IRAK4 Inhibition Assay) turn out when `CC(CCF)Nc1cc(-n2ncc3cc(C#N)cnc32)ncc1C(=O)NC[C@@H](F)C(C)(C)O` (mixture of isomers) [Example 205] was run?
The IC50 was 7 nM.

What about the EC50 [1, 2] of the same compound?
The EC50 was 240 nM.

What does the source list for `CC(F)Cn1cc(Nc2cc(-n3cnc4cc(C#N)cnc43)ncc2C(=O)NC[C@@H](F)C(C)(C)O)cn1` (mixture of isomers) [Example 378]?
IC50 (IRAK4; IRAK4 Inhibition Assay): 2.6 nM; IC50 [1, 2]: 655 nM

With `CC(C)(O)[C@H](F)CNC(=O)c1cnc(-n2ccc3cc(C#N)cnc32)cc1NC1CC1c1c[nH]cn1` (mixture of isomers) [Example 460] as the compound, how does the IC50 (IRAK4; IRAK4 0.6 nM) read?
Its IC50 is 3.3 nM.

What about the EC50 [1, 3] of the same compound?
The EC50 was 88 nM.

What about the IC50 [1, 3] of the same compound?
The IC50 was 113 nM.

With `CNC(=O)[C@H]1CC[C@H](NC(=O)c2cnc(-n3ccc4cc(C#N)cnc43)cc2NC2CCOCC2)CC1` [Example 86, 6-(5-cyano-1H-pyrrolo[2,3-b]pyridin-1-yl)-N-((trans)-4-(methylcarbamoyl)cyclohexyl)-4-((tetrahydro-2H-pyran-4-yl)amino)nicotinamide] as the compound, how does the EC50 [1, 2] read?
Its EC50 is 110 nM.

Which EC50 [1, 2] does the source give for `CC(C)Nc1cc(-n2ccc3cc(C#N)cnc32)ncc1C(=O)N[C@H]1CC[C@H]([N+](=O)[O-])CC1` [Example 95, 6-(5-cyano-1H-pyrrolo[2,3-b]pyridin-1-yl)-4-(isopropylamino)-N-((trans)-4-nitrocyclohexyl)nicotinamide] here?
The EC50 was 408 nM.

How did the EC50 [1, 2] turn out when `CC(C)(O)[C@H](F)CNC(=O)c1cnc(-n2ccc3cc(C#N)cnc32)cc1NC1CCCC(F)(F)C1O` (stereo partly drawn) [Example 111, 6-(5-cyano-1H-pyrrolo[2,3-b]pyridin-1-yl)-4-((3,3-difluoro-2-hydroxycyclohexyl)amino)-N—((R)-2-fluoro-3-hydroxy-3-methylbutyl) nicotinamide] was run?
Its EC50 is 238 nM.

Which IC50 (IRAK4; IRAK4 Inhibition Assay) does the source give for `C[C@H](CF)Nc1cc(-n2ncc3cc(C#N)cnc32)ncc1C(=O)NC[C@@H](F)C(C)(C)O` [Example 114, 6-(5-Cyano-1H-pyrazolo[3,4-b]pyridin-1-yl)-N—((R)-2-fluoro-3-hydroxy-3-methylbutyl)-4-(((R)-1-fluoropropan-2-yl)amino)nicotinamide] here?
Its IC50 is 4.6 nM.

`CC(C)(O)[C@H](F)CNC(=O)c1cnc(-n2ncc3cncnc32)cc1NC1CC1` [Example 134, (R)-4-(cyclopropylamino)-N-(2-fluoro-3-hydroxy-3-methylbutyl)-6-(1H-pyrazolo[3,4-d]pyrimidin-1-yl)nicotinamide] was tested. Which EC50 [1, 2] did it give?
Its EC50 is 282 nM.

With `CC(C)(O)[C@H](F)CNC(=O)c1cnc(-n2ncc3cc(Cl)cnc32)cc1NC1CCOCC1` [Example 135, (R)-6-(5-chloro-1H-pyrazolo[3,4-b]pyridin-1-yl)-N-(2-fluoro-3-hydroxy-3-methylbutyl)-4-((tetrahydro-2H-pyran-4-yl)amino) nicotinamide] as the compound, how does the EC50 [1, 2] read?
The EC50 was 168 nM.

Which EC50 [1, 2] does the source give for `CC(C)(O)[C@H](F)CNC(=O)c1cnc(-n2ncc3cc(Cl)cnc32)cc1NC1CC1` [Example 136, (R)-6-(5-chloro-1H-pyrazolo[3,4-b]pyridin-1-yl)-4-(cyclopropylamino)-N-(2-fluoro-3-hydroxy-3-methylbutyl)nicotinamide] here?
The EC50 was 133 nM.

`CC(C)Nc1cc(-n2ncc3cc(Cl)cnc32)ncc1C(=O)NC[C@@H](F)C(C)(C)O` [Example 137, (R)-6-(5-chloro-1H-pyrazolo[3,4-b]pyridin-1-yl)-N-(2-fluoro-3-hydroxy-3-methylbutyl)-4-(isopropylamino)nicotinamide] was tested. Which EC50 [1, 2] did it give?
The EC50 was 84 nM.

Which EC50 [1, 2] does the source give for `CC(C)Nc1cc(-n2ncc3cc(O)cnc32)ncc1C(=O)NC[C@@H](F)C(C)(C)O` [Example 153, (R)—N-(2-fluoro-3-hydroxy-3-methylbutyl)-6-(5-hydroxy-1H-pyrazolo[3,4-b]pyridin-1-yl)-4-(isopropylamino)nicotinamide] here?
Its EC50 is 160 nM.

Which EC50 [1, 2] does the source give for `CC(C)Nc1cc(-n2cnc3cncnc32)ncc1C(=O)NC[C@@H](F)C(C)(C)O` [Example 170, (R)—N-(2-Fluoro-3-hydroxy-3-methylbutyl)-4-(isopropylamino)-6-(9H-purin-9-yl) nicotinamide] here?
The EC50 was 423 nM.

With `CC(C)Nc1cc(-n2ccc3cc(C#N)cnc32)ncc1C(=O)N[C@H]1CC[C@](O)(c2ccnn2C)CC1` [Example 173, 6-(5-Cyano-1H-pyrrolo[2,3-b]pyridin-1-yl)-N-((1s,4s)-4-hydroxy-4-(1-methyl-1H-pyrazol-5-yl)cyclohexyl)-4-(isopropylamino)nicotinamide] as the compound, how does the EC50 [1, 2] read?
The EC50 was 81 nM.

And the IC50 [1, 2]?
The IC50 was 242 nM.

`CC(C)Nc1cc(-n2ncc3cc(C#N)cnc32)ncc1C(=O)NCC1CCS(=O)(=O)C1` (stereo not shown) [Example 209] was tested. Which EC50 [1, 2] did it give?
Its EC50 is 322 nM.

With `CC(C)Nc1cc(-n2ncc3cc(C#N)cnc32)ncc1C(=O)N[C@H]1CC[C@H](NC(=O)[C@H](C)O)CC1` [Example 274] as the compound, how does the IC50 [1, 2] read?
Its IC50 is 204 nM.

For `CC(C)Nc1cc(-n2ncc3cc(Cl)c(N)nc32)ncc1C(=O)NC[C@@H](F)C(C)(C)O` [Example 282], which IC50 [1, 2] is on record?
Its IC50 is 541 nM.

For `CC(C)Nc1cc(-n2ncc3cc(C#N)cnc32)ncc1C(=O)N[C@H]1CC[C@H](NC(=O)[C@@H](C)O)CC1` [Example 287], which IC50 [1, 2] is on record?
Its IC50 is 489 nM.

`CC(Nc1cc(-n2ncc3cc(C#N)cnc32)ncc1C(=O)NC[C@@H](F)C(C)(C)O)C(F)(F)F` (stereo partly shown) [Example 297] was tested. Which IC50 [1, 2] did it give?
Its IC50 is 219 nM.

For `CCCNc1cc(-n2ncc3cc(C#N)cnc32)ncc1C(=O)NC[C@@H](F)C(C)(C)O` [Example 337], which EC50 [1, 2] is on record?
Its EC50 is 572 nM.

And the IC50 [1, 2]?
Its IC50 is 765 nM.

`Cn1cc(Nc2cc(-n3ncc4cc(C#N)cnc43)ncc2C(=O)NC[C@@H](F)C(C)(C)O)cn1` [Example 387] was tested. Which IC50 [1, 2] did it give?
The IC50 was 198 nM.

Which EC50 [1, 3] does the source give for `CC(C)Nc1cc(-n2ccc3cc(C#N)ccc32)ncc1C(=O)N[C@H]1CC[C@H](C(C)(C)O)CC1` [Example 414, 6-(5-Cyano-1H-indol-1-yl)-N-((1R,4R)-4-(2-hydroxypropan-2-yl)cyclohexyl)-4-(isopropylamino)nicotinamide] here?
The EC50 was 188 nM.

Which EC50 [1, 3] does the source give for `COC(C)(C)[C@H](F)CNC(=O)c1cnc(-n2ccc3cc(C#N)cnc32)cc1NC(C)C` [Example 434] here?
The EC50 was 57 nM.

With `[2H]C([2H])([2H])OC(C)(C)[C@H](F)CNC(=O)c1cnc(-n2ccc3cc(C#N)cnc32)cc1NC(C)C` [Example 442] as the compound, how does the EC50 [1, 3] read?
Its EC50 is 42 nM.

With `CC(C)Nc1cc(-n2ccc3cc(C#N)cnc32)ncc1C(=O)NC1CCC(C(C)(O)C2CC2)CC1` (stereo not shown) [Example 444] as the compound, how does the EC50 [1, 4] read?
The EC50 was 186 nM.

`CC(C)Nc1cc(-n2ccc3cc(C#N)cnc32)ncc1C(=O)NC1CCC(C(C)(O)C2CC2)CC1` (stereo not shown) [Example 446] was tested. Which EC50 [1, 4] did it give?
Its EC50 is 51 nM.

With `CC(C)(O)[C@H](F)CNC(=O)c1cnc(-n2ccc3cc(C(N)=O)cnc32)cc1NCC1CNC1` [Example 475] as the compound, how does the EC50 [1, 3] read?
Its EC50 is 305 nM.

What about the IC50 [1, 3] of the same compound?
The IC50 was 1180 nM.

How did the IC50 [1, 3] turn out when `CC(C)Nc1cc(-n2ccc3cc(CNC(=O)CC(C)(C)O)cnc32)ncc1C(=O)NC[C@@H](F)C(C)(C)O` [Example 499] was run?
Its IC50 is 213 nM.

Which EC50 [1, 3] does the source give for `CC(C)(O)[C@H](F)CNC(=O)c1cnc(-n2ncc3cc(C#N)cnc32)cc1Nc1ccc(C#N)cc1` [Example 523] here?
Its EC50 is 24 nM.

With `CC(C)(O)[C@H](F)CNC(=O)c1cnc(-n2ncc3cc(C#N)cnc32)cc1N[C@@H]1CCN(c2ncc(F)cn2)C1` [Example 534] as the compound, how does the IC50 [1, 3] read?
The IC50 was 824 nM.

What about the EC50 [1, 4] of the same compound?
Its EC50 is 59 nM.

For `CC(C)(O)[C@H](F)CNC(=O)c1cnc(-n2ncc3cc(C#N)cnc32)cc1N[C@@H]1CCOC1` [Example 544, 6-(5-Cyano-1H-pyrazolo[3,4-b]pyridin-1-yl)-N—((R)-2-fluoro-3-hydroxy-3-methylbutyl)-4-(((R)-tetrahydrofuran-3-yl)amino)nicotinamide, TFA salt], which EC50 ([1]; human PBMCs, lipoteichoic acid stimulated, TFA salt) is on record?
Its EC50 is 239 nM.

For `CC(C)(O)[C@H](F)CNC(=O)c1cnc(-n2ncc3cc(C#N)cnc32)cc1N[C@H]1CCOC1` [Example 545, 6-(5-Cyano-1H-pyrazolo[3,4-b]pyridin-1-yl)-N—((R)-2-fluoro-3-hydroxy-3-methylbutyl)-4-(((S)-tetrahydrofuran-3-yl)amino)nicotinamide, TFA salt], which EC50 [1, 3] is on record?
Its EC50 is 476 nM.

Which results are given for `CC(C)(O)[C@H](F)CNC(=O)c1cnc(-n2ncc3cc(C#N)cnc32)cc1N[C@@H]1CCOC1` [Example 548]?
IC50 [1, 3]: 763 nM; EC50 [1, 4]: 708 nM

With `CCCNc1cc(-n2ncc3cc(C#N)cnc32)ncc1C(=O)NC[C@@H](F)C(C)(C)O` [Example 592] as the compound, how does the IC50 [1, 3] read?
The IC50 was 271 nM.

`CC(F)CCNc1cc(-n2ncc3cc(C#N)cnc32)ncc1C(=O)NC[C@@H](F)C(C)(C)O` (stereo partly shown) [Example 604] was tested. Which IC50 [1, 3] did it give?
The IC50 was 104 nM.

Which IC50 [1, 4] does the source give for `CC(C)(O)[C@H](F)CNC(=O)c1cnc(-n2ncc3cc(C#N)cnc32)cc1NC1CCC(F)C1` (stereo partly shown) [Example 625] here?
Its IC50 is 210 nM.

How did the IC50 [1, 4] turn out when `CC(C)(O)[C@H](F)CNC(=O)c1cnc(-n2ncc3cc(C#N)cnc32)cc1NC1CCC(F)C1` (stereo partly shown) [Example 626] was run?
Its IC50 is 76 nM.

For `CC(C)(O)[C@H](F)CNC(=O)c1cnc(-n2ncc3cc(C#N)cnc32)cc1NC1CCC(F)C1` (stereo partly shown) [Example 627], which IC50 [1, 4] is on record?
The IC50 was 7 nM.
